Molecules are shown by their SMILES.

The target in one assay is T1, human LXRα-LBD (Homo sapiens, UniProt Q13133).
T1 construct: Purified human LXRα-LBD (GST); purchased Life Technologies
T1 sequence (Q13133 209-447 limits assumed): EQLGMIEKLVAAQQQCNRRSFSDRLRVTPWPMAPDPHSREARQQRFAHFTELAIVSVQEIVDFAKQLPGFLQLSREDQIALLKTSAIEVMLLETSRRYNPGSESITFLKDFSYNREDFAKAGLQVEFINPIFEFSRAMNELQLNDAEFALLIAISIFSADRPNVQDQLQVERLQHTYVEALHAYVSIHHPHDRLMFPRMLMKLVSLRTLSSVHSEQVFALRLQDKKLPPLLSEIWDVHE
The assay can be described thus: Lantha Screen TR-FRET NR-cofactor peptide interaction assay. In kind it is biochemical. The protocol:
Biochemical NR—Cofactor Peptide Interaction Assay (TR-FRET) Assay (Life Technologies kit). Purified human LXRα-LBD (GST), LXRβ-LBD (GST), fluoroscein (FL)-labeled peptides, terbium (TB)-labeled anti-GST tag antibody, and all buffers were purchased from Life Technologies. All LXR assays were conducted in 384-well black medium-binding polystyrene assay plates (Greiner Bio-One). Test compound stock solutions and subsequent serial dilutions were prepared at 100× the final concentration in DMSO, and then were diluted to the final assay concentration of 2× in assay buffer and dispensed into assay plates. LXR-LBDs were added to assay plates and then a mixture of FL-peptide/TB-anti-GST was added to each well containing either a test compound or DMSO control for final concentrations of 2.5 nM LXRα-LBD, 5 nM LXRβ-LBD, 10 nM TB-anti-GST, and 250 nM FL-peptide. Assay plates were protected from light and incubated with gentle shaking for 3.5 hours at room temperature. The TR-FRET ratio (520 nm/492 nm) of each assay well was measured using the Perkin Elmer EnVision plate reader. An excitation filter at 340 nm was used to excite the TB-anti-GST and emission filters 492 nm and 520 nm were used to detect terbium and fluorescein emission signals respectively. A delay of 100 μs followed by a 200 μs integration time was used to collect the time-resolved emission signals.
The assay is identical except we use His-tagged LXR (made in house) and TB-labeled anti-His antibody (Life Technologies). FL-labeled peptides (Life Technologies) are: • NCOR-ID1 NCOR-ID2 SMRT SRC1-2 SRC2-3 TRAP/DRIP

Assay [1] deals with lung and breast tumor bearing mice. Kind of assay: Tumor specific immune response in tumor bearing mice (FIG. 1B). In kind it is in vivo.
A further assay has as its system dendritic cell. Kind of assay: Cultured dendritic cell chemokine expression (FIG. 1A). In kind it is cell-based. To be noted: cultured dendritic cells.

As to `Cc1cc(C)c(S(=O)(=O)N2Cc3ccccc3CC2C(=O)NCCc2cccc(C#N)c2)c(C)c1` (stereo not shown) [Compound 38], at human LXRα-LBD, the IC50 – broadly, the point on the concentration scale where inhibition reaches its midpoint – is 0.661 µM. The molecule `O=C(Nc1ccc2cc(Br)ccc2n1)c1cccc(Cl)c1` [Compound 113] yielded an IC50 against human LXRα-LBD of 5.2 µM. In the case of `Cc1cc(C)c(S(=O)(=O)N(CCc2cccc(Br)c2)Cc2ccc(-c3cccc(S(C)(=O)=O)c3)cc2)c(C)c1` [SR9243], in assay [1], the “cytotoxic T-cell activity” value is recorded as “induces” and the dendritic cell activity result is recorded as “induces”. In the assay with dendritic cell, the “inhibition of dendritic cell chemokine expression by LXR agonists and tumor specific LXR ligands” value is recorded as “disrupted”. At human LXRα-LBD, `COc1ccc(-c2ccc3nc(NS(=O)(=O)c4c(C)cc(C)cc4C)ccc3c2)cc1` [Compound 104] displayed an IC50 of 4.3 µM. The same measure, in the same setting: to `Cc1cc(C)c(S(=O)(=O)N2Cc3ccc(-c4cccc(S(C)(=O)=O)c4)cc3CC2C(=O)NCc2cccc(C#N)c2)c(C)c1` (stereo not shown) [Compound 12] belongs 0.02 µM; to `Cc1cc(C)c(S(=O)(=O)N2Cc3ccc(-c4cccc(S(C)(=O)=O)c4)cc3CC2C(=O)NCc2ccc(C#N)cc2)c(C)c1` (stereo not shown) [Compound 5, N-(4-cyanobenzyl)-2-(mesitylsulfonyl)-6-(3-(methylsulfonyl)phenyl)-1,2,3,4 tetrahydroisoquinoline-3-carboxamide], 8.3 µM; to `COC(=O)C1Cc2cc(-c3cccc(S(C)(=O)=O)c3)ccc2CN1S(=O)(=O)c1c(C)cc(C)cc1C` (stereo not shown) [Compound 3, methyl 2-(mesitylsulfonyl)-6-(3-(methylsulfonyl)phenyl)-1,2,3,4-tetrahydroisoquinoline-3-carboxylate], 5 µM. The same measure, in the same setting: to `Cc1cc(C)c(S(=O)(=O)N2Cc3ccc(-c4cccc(S(C)(=O)=O)c4)cc3CC2C(=O)NCCc2cccc(C#N)c2)c(C)c1` (stereo not shown) [Compound 14] belongs 2.1 µM.

The values are drawn from US11746097B2, “LXR inverse agonists for treatment of cancer” (Saint Louis University, priority 2016, dated 2023).
